# In a melting point compilation (Tetko et al.; mined from patent text by program, amines drawn as free bases though some values may be those of a salt):
row,SMILES,melting point
1,CC1(C)SC(=S)N(Cc2cccs2)C(=O)C1NC(=O)c1ccc(Cl)cc1 (stereo unspecified),176 to 177 °C
2,Cc1c(C)c2cc(CCN3CCN(c4n[nH]c5ccccc45)CC3)ccc2[nH]c1=O,266 to 268 °C
3,O=C(O)CCN1Cn2cc(C(=O)O)cc2-c2ccccc21,234 to 236 °C
4,Cn1ncc(SCc2ccccc2)c(Br)c1=O,118 to 121 °C
5,Cc1ccsc1C(Cc1cc(Br)ccc1N)N(C)C (stereo unspecified),96 to 98 °C
6,C=C(c1ccc(OC)cc1)c1ccc(OC)cc1,137 °C
7,CCOC(=O)C1=CC2(CCC1S(=O)(=O)Nc1ccc(F)cc1Cl)O[C@H]([C@H](O)CO)[C@@H]([C@H](O)CO)O2 (stereo partly specified),55 to 56 °C
8,CCc1nc2cc(Cl)c(S(N)(=O)=O)cc2[nH]1,240 to 242 °C
9,CCCCC1CCC2NC(=O)C(=O)C2C1 (stereo unspecified),112 to 113 °C
10,COc1cc(OC)c(-c2cccs2)cc1/C=C/C(=O)c1ccc(S(=O)(=O)NCc2cccnc2)cc1,167 to 168 °C
11,ON=Cc1ccc(OCc2csc(-c3ccccc3)n2)cc1,175 to 179 °C
12,O=C(CCC(=O)N(CCO)CCO)c1ccccc1,98 °C
13,CN(C)CCC(O)c1ccc(Cl)s1 (stereo unspecified),76 to 77 °C
14,CC(C)(C)c1cc(-c2nc(Cl)nc(Cl)n2)cc(C(C)(C)C)c1O,178 to 179 °C
15,O=C(Nc1ccc(CC2CCN(S(=O)(=O)c3ccccc3)CC2)cc1)C(F)(F)F,194 to 195 °C
16,O=C1CCCc2ccc(OCCCCN3CCN(c4cccc5c4OCC5)CC3)nc2N1,176 to 177 °C
17,Oc1ccc(N2CCN(c3ccncc3)CC2)cc1,288 to 290 °C
18,Cc1cc(-c2ccc(C(F)(F)F)cc2)cn2c(-c3nc(-c4cnc(N)nc4)no3)cnc12,302 °C
19,CNC(=O)C1OC(n2cnc3c(NCc4cc(Cl)ccc4OCc4cc(C)no4)ncnc32)C(O)C1NC(=O)OC(C)(C)C (stereo unspecified),135 to 137 °C
20,Cc1cccc(-c2cc(O)c(SCc3ccccc3)c(=O)o2)c1,137 to 138 °C
21,COC(=O)c1sccc1N=NN(C)C,74 to 76 °C
22,O=C(NCCc1cccc2ccc(OC3C=CCCC3)cc12)C1CCC1 (stereo unspecified),104 to 106 °C
23,Cc1ccccc1S(=O)(=O)NC(=O)n1sc(Cl)cc1=O,82 to 84 °C
24,COc1cc(C=O)ccc1OCC(O)CN1CCC(c2noc3cc(F)ccc23)CC1 (stereo unspecified),107 to 108 °C
25,NC(=NOCC1CC1)c1c(C(F)(F)F)ccc(C(F)(F)F)c1Cl,75 to 80 °C
26,COc1ccc(S(=O)(=O)N(CCNC(C)=O)c2ccc(C)cc2Cc2c(F)cccc2F)cc1OC,79.7 °C
27,Cc1cc2c3c(cccc3c1Br)C(=O)N(O)C2=O,255 to 257 °C
28,BrC12CCCC(C1)C1CCC2C1 (stereo unspecified),57.5 to 58.5 °C

# Second part, the compound after the results:
row,melting point,SMILES
1,190 to 191 °C,CCOC(=O)CCc1cn(Cc2ccc(C(=O)NCc3nc(-c4ccccc4)oc3C)cc2)nc1-c1ccccc1
2,88.5 to 90 °C,CCCCCCCCCCCCSC1C=NNC1=O (stereo unspecified)
3,118 to 119 °C,Fc1ccccc1CC1CCN(C2CC=C(c3ccc4c(c3)OCO4)CC2)CC1 (stereo unspecified)
4,221 to 223 °C,CN(C)c1cnc([N+](=O)[O-])cn1
5,222 to 223 °C,Cc1ccc([N+](=O)[O-])c(=O)[nH]1
6,195 to 197 °C,CS(=O)(=O)c1ccc(-c2cnn(-c3ccc(F)cc3)c(=O)c2-c2ccc(Cl)cc2)cc1
7,140 to 142 °C,COC(=O)c1cnc(CNC(=O)c2ccccc2)c2ccccc12
8,162 to 164 °C,Nc1cc(-c2ccccc2)nc2ccccc12
9,88 to 90 °C,Cc1ccc(S(=O)(=O)C(CCCCCOc2ccc(Cl)cc2)C(=O)O)cc1 (stereo unspecified)
10,214 to 215 °C,CN(Cc1ccccc1)C(Cc1ccccc1)C(=O)O (stereo unspecified)
11,199 to 201 °C,COc1ccc2ccccc2c1C1OC(=O)NC1=O (stereo unspecified)
12,92 to 95 °C,FC(F)(F)c1cccc(-c2ncc(CCl)c(C3CC3)n2)c1
13,142 to 144 °C,COc1cc2nc(SCc3nccc(N(C)C)c3F)[nH]c2cc1OC
